Results published in patent US8258145B2, “Method of treating brain cancer” (Myrexis, Inc., priority 2005, dated 2012).

What follows are compounds tested on T-47D (assay: Caspase cascade activation (caspase activity ratio and potency), fluorogenic N-(Ac-DEVD)-N'-ethoxycarbonyl-R110 substrate). Conditions: Homo sapiens, T47D; T-47D (24 hr).
Format: cell-based, Human
Method: Human breast cancer cell lines T-47D and DLD-1 were grown according to media component mixtures designated by American Type Culture Collection+10% FCS (Invitrogen Corporation), in a 5% CO2−95% humidity incubator at 37° C. T-47D and DLD-1 cells were maintained at a cell density between 50 and 80% confluency at a cell density of 0.1 to 0.6×10^6 cells/mL. Cells were harvested at 600×g and resuspended at 0.65×10^6 cells/mL into appropriate media+10% FCS. An aliquot of 22.5 μL of cells was added to a well of a 384-well microtiter plate containing 2.5 μL of a 10% DMSO in RPMI-1640 media solution containing 0.16 to 100 μM of (2-chloro-quinazolin-4-yl)-(4-methoxy-phenyl)-methyl-amine or other test compound (0.016 to 10 μM final). An aliquot of 22.5 μL of cells was added to a well of a 384-well microtiter plate containing 2.5 μL of a 10% DMSO in RPMI-1640 media solution without test compound as the control sample. […] […] The samples were mixed by agitation and incubated at room temperature. Using a fluorescent plate reader (Model SPECTRAfluor Plus, Tecan), an initial reading (T=0) was made approximately 1-2 min after addition of the substrate solution, employing excitation at 485 nm and emission at 530 nm, to determine the background fluorescence of the control sample. After the 3 h incubation, the samples were read for fluorescence as above (T=3 h).
The Relative Fluorescence Unit values (RFU) were used to calculate the sample readings as follows: RFU(T=3h)−Control RFU(T=0)=Net RFU(T=3h)
The activity of caspase cascade activation was determined by the ratio of the net RFU value for (2-chloro-quinazolin-4-yl)-(4-methoxy-phenyl)-methyl-amine or other test compounds to that of control samples. The EC50 (nM) was determined by a sigmoidal dose-response calculation (Prism 3.0, GraphPad Software Inc.).

Question: How did the EC50 turn out when CNc1nc(N(C)c2ccc(N(C)C)cc2)c2ccccc2n1 [Example 47, (2-Methylamino-quinazolin-4-yl)-(4-dimethylaminophenyl)-methylamine] was run?
Answer: The EC50 was 29 nM.

Same assay, conditions: T-47D (24 hr)

Question: Which “Caspase activity Ratio (net RFU of test compound to control)” value (shortened to “Caspase activity Ratio”) does the source give for Cc1ccc(N(C)c2nc(Cl)nc3ccccc23)cc1 [Example 2, (2-Chloro-quinazolin-4-yl)-(4-methyl-phenyl)-methyl-amine] here?
Answer: Its value is 6.7.

Question: With CN(c1ccc(Cl)cc1)c1nc(Cl)nc2ccccc12 [Example 3, (2-Chloro-quinazolin-4-yl)-(4-chloro-phenyl)-methyl-amine] as the compound, how does the “Caspase activity Ratio” value read?
Answer: Its value is 8.1.

Question: For CN(c1ccc(OC(F)(F)F)cc1)c1nc(Cl)nc2ccccc12 [Example 4, (2-Chloro-quinazolin-4-yl)-(4-trifluoromethoxy-phenyl)-methyl-amine], which “Caspase activity Ratio” value is on record?
Answer: The value was 10.3.

Question: How did the “Caspase activity Ratio” value turn out when COc1ccc(N(C)c2nc(N3CCOCC3)nc3ccccc23)cc1 [Example 6, (4-Methoxy-phenyl)-methyl-(2-morpholin-4-yl-quinazolin-4-yl)-amine] was run?
Answer: Its value is 5.7.

Question: With COc1ccc(N(C)c2nc(Cl)nc3ccccc23)cn1 [Example 7, (2-Chloro-quinazolin-4-yl)-(6-methoxy-pyridin-3-yl)-methyl-amine] as the compound, how does the “Caspase activity Ratio” value read?
Answer: Its value is 6.7.

Question: How did the “Caspase activity Ratio” value turn out when COc1ccc(N(C)c2nc(CCl)nc3ccccc23)cc1 [Example 22, (2-Chloromethyl-quinazolin-4-yl)-(4-methoxy-phenyl)-methyl-amine] was run?
Answer: Its value is 6.2.

Question: COc1cccc(N(C)c2nc(Cl)nc3ccccc23)c1OC [Example 24, (2-Chloro-quinazolin-4-yl)-(2,3-dimethoxy-phenyl)-methyl-amine] was tested. Which “Caspase activity Ratio” value did it give?
Answer: The value was 4.5.

Question: How did the “Caspase activity Ratio” value turn out when Cc1nc(N(C)c2ccc(OC(F)F)cc2)c2ccccc2n1 [Example 25, (4-Difluoromethoxy-phenyl)-(2-methyl-quinazolin-4-yl)-methyl-amine] was run?
Answer: Its value is 6.7.

Question: Which “Caspase activity Ratio” value does the source give for COc1ccc(N(C)c2nc(C)nc3ccccc23)cc1F [Example 26, (3-Fluoro-4-methoxy-phenyl)-(2-methyl-quinazolin-4-yl)-methyl-amine] here?
Answer: The value was 7.6.

Question: With Cc1nc(N(C)c2ccc(OC(C)C)cc2)c2ccccc2n1 [Example 27, (4-Isopropoxy-phenyl)-(2-methyl-quinazolin-4-yl)-methyl-amine] as the compound, how does the “Caspase activity Ratio” value read?
Answer: Its value is 6.2.

Question: CCc1ccc(N(C)c2nc(C)nc3ccccc23)cc1 [Example 28, (4-Ethyl-phenyl)-(2-methyl-quinazolin-4-yl)-methyl-amine] was tested. Which “Caspase activity Ratio” value did it give?
Answer: The value was 6.3.

Question: With COc1ccc(N(C)c2nc(Cl)nc3cccc(Cl)c23)cc1 [Example 30, (2,5-Dichloro-quinazolin-4-yl)-(4-methoxy-phenyl)-methyl-amine] as the compound, how does the “Caspase activity Ratio” value read?
Answer: Its value is 10.6.

Question: How did the “Caspase activity Ratio” value turn out when COc1ccc(N(C)c2nc(C)nc3cccc(OC)c23)cc1 [Example 31, (5-Methoxy-2-methyl-quinazolin-4-yl)-(4-methoxy-phenyl)-methyl-amine] was run?
Answer: Its value is 8.3.

Question: For COc1ccc(N(C)c2nc(C)nc3ccccc23)c(F)c1 [Example 34, (2-Fluoro-4-methoxy-phenyl)-(2-methyl-quinazolin-4-yl)-methyl-amine], which “Caspase activity Ratio” value is on record?
Answer: Its value is 6.9.

Question: Which “Caspase activity Ratio” value does the source give for CCOc1ccc(N(C)c2nc(C)nc3ccccc23)cc1 [Example 36, (4-Ethoxy-phenyl)-(2-methyl-quinazolin-4-yl)-methyl-amine] here?
Answer: The value was 5.2.

Question: How did the “Caspase activity Ratio” value turn out when COc1ccc(N(C)c2nc(SC)nc3ccccc23)cc1 [Example 37, (2-Methylthio-quinazolin-4-yl)-(4-methoxy-phenyl)-methyl-amine] was run?
Answer: The value was 5.2.

Question: How did the “Caspase activity Ratio” value turn out when COc1ccc(N(C)c2nc(N(C)C)nc3ccccc23)cc1 [Example 38, (2-Dimethylamino-quinazolin-4-yl)-(4-methoxy-phenyl)-methyl-amine] was run?
Answer: Its value is 8.2.

Question: COc1ccc(N(C)c2nc(C)nc3ccccc23)nc1 [Example 41, (5-Methoxy-pyridin-2-yl)-(2-methyl-quinazolin-4-yl)-methyl-amine] was tested. Which “Caspase activity Ratio” value did it give?
Answer: Its value is 5.0.

Question: How did the “Caspase activity Ratio” value turn out when COc1ccc(N(C)c2nc(NCc3ccccc3)nc3ccccc23)cc1 [Example 42, (2-Benzylamino-quinazolin-4-yl)-(4-methoxyphenyl)-methylamine] was run?
Answer: The value was 8.2.

Question: For Cc1nc(N(C)c2ccc(N(C)C)cc2)c2cc([N+](=O)[O-])ccc2n1 [Example 44, (2-Methyl-6-nitroquinazolin-4-yl)-(4-dimethylaminophenyl)-methylamine], which “Caspase activity Ratio” value is on record?
Answer: The value was 2.6.

Question: CN(C)c1ccc(N(C)c2nc(Cl)nc3ccccc23)cc1 [Example 45, (2-Chloro-quinazolin-4-yl)-(4-dimethylaminophenyl)-methylamine] was tested. Which “Caspase activity Ratio” value did it give?
Answer: Its value is 4.2.

Question: With COc1ccc(N(C)c2nc(N(C)C)nc3ccc([N+](=O)[O-])cc23)cc1 [Example 46, (2-Dimethylamino-6-nitroquinazolin-4-yl)-(4-methoxyphenyl)-methylamine] as the compound, how does the “Caspase activity Ratio” value read?
Answer: Its value is 4.2.

Question: For CNc1nc(N(C)c2ccc(N(C)C)cc2)c2ccccc2n1 [Example 47, (2-Methylamino-quinazolin-4-yl)-(4-dimethylaminophenyl)-methylamine], which “Caspase activity Ratio” value is on record?
Answer: The value was 3.9.

Question: Which “Caspase activity Ratio” value does the source give for CC(=O)N(C)c1nc(N(C)c2ccc(N(C)C)cc2)c2ccccc2n1 [Example 48, [2-(N-Methyl-acetamido)-quinazolin-4-yl]-(4-dimethylaminophenyl)-methylamine] here?
Answer: Its value is 2.4.

Question: How did the “Caspase activity Ratio” value turn out when CSc1ccc(N(C)c2nc(C)nc3ccccc23)cc1 [Example 49, (4-Methylthio-phenyl)-(2-methyl-quinazolin-4-yl)-methylamine] was run?
Answer: The value was 7.5.

Same assay, conditions: T-47D (48 hr)

Question: How did the “Caspase activity Ratio” value turn out when COc1ccc(N(C)c2nc(NO)nc3ccccc23)cc1 [Example 5, N^2-Hydroxyl-N^4-(4-methoxy-phenyl)-N^4-methyl-quinazoline-2,4-diamine] was run?
Answer: The value was 12.8.

Question: With COc1ccc(N(C)c2nc(N3CCOCC3)nc3ccccc23)cc1 [Example 6, (4-Methoxy-phenyl)-methyl-(2-morpholin-4-yl-quinazolin-4-yl)-amine] as the compound, how does the “Caspase activity Ratio” value read?
Answer: Its value is 11.5.

Question: How did the “Caspase activity Ratio” value turn out when CCN(c1ccc(OC)cc1)c1nc(Cl)nc2ccccc12 [Example 8, (2-Chloro-quinazolin-4-yl)-ethyl-(4-methoxy-phenyl)-amine] was run?
Answer: The value was 6.1.

Question: For COc1ccc(N(C)c2nc(Cl)nc3ccccc23)c(OC)c1 [Example 9, (2-Chloro-quinazolin-4-yl)-(2,4-dimethoxy-phenyl)-methyl-amine], which “Caspase activity Ratio” value is on record?
Answer: The value was 12.4.

Question: How did the “Caspase activity Ratio” value turn out when COc1cccc(N(C)c2nc(Cl)nc3ccccc23)c1 [Example 10, (2-Chloro-quinazolin-4-yl)-(3-methoxy-phenyl)-methyl-amine] was run?
Answer: The value was 14.7.

Question: Which “Caspase activity Ratio” value does the source give for COc1ccc(N(C)c2nc(CF)nc3ccccc23)cc1 [Example 12, (2-Fluoromethyl-quinazolin-4-yl)-(4-methoxy-phenyl)-methyl-amine] here?
Answer: Its value is 9.0.

Question: Which “Caspase activity Ratio” value does the source give for COc1ccc(N(C)c2nc(Cl)nc3ccc(C)cc23)cc1 [Example 13, (2-Chloro-6-methyl-quinazolin-4-yl)-(4-methoxy-phenyl)-methyl-amine] here?
Answer: Its value is 4.9.

Question: Which “Caspase activity Ratio” value does the source give for COc1ccc(N(C)c2nc(Cl)nc3cccc(C)c23)cc1 [Example 14, (2-Chloro-5-methyl-quinazolin-4-yl)-(4-methoxy-phenyl)-methyl-amine] here?
Answer: The value was 10.8.

Question: Which “Caspase activity Ratio” value does the source give for COc1ccc(N(C)c2nc(Cl)nc3c(C)cccc23)cc1 [Example 15, (2-Chloro-8-methyl-quinazolin-4-yl)-(4-methoxy-phenyl)-methyl-amine] here?
Answer: Its value is 7.1.

Question: For COc1ccc(N(C)c2nc(Cl)nc3ccc(Cl)cc23)cc1 [Example 16, (2,6-Dichloro-quinazolin-4-yl)-(4-methoxy-phenyl)-methyl-amine], which “Caspase activity Ratio” value is on record?
Answer: The value was 6.5.

Question: CN(c1ccc2c(c1)OCO2)c1nc(Cl)nc2ccccc12 [Example 18, (2-Chloro-quinazolin-4-yl)-(3,4-methylenedioxyphenyl)-methyl-amine] was tested. Which “Caspase activity Ratio” value did it give?
Answer: The value was 12.5.

Question: With COc1ccc(N(C)c2nc(Cl)nc3ccccc23)cc1OC [Example 19, (2-Chloro-quinazolin-4-yl)-(3,4-dimethoxy-phenyl)-methyl-amine] as the compound, how does the “Caspase activity Ratio” value read?
Answer: The value was 13.1.

Question: Which “Caspase activity Ratio” value does the source give for CCCOc1ccc(N(C)c2nc(Cl)nc3ccccc23)cc1 [Example 20, (2-Chloro-quinazolin-4-yl)-(4-propoxy-phenyl)-methyl-amine] here?
Answer: Its value is 11.3.

Question: How did the “Caspase activity Ratio” value turn out when COc1ccc(N(C)c2nc(CCl)nc3ccccc23)cc1 [Example 22, (2-Chloromethyl-quinazolin-4-yl)-(4-methoxy-phenyl)-methyl-amine] was run?
Answer: Its value is 5.7.

Question: For COc1ccc(N(C)c2nc(Cl)nc3c(Cl)cccc23)cc1 [Example 29, (2,8-Dichloro-quinazolin-4-yl)-(4-methoxy-phenyl)-methyl-amine], which “Caspase activity Ratio” value is on record?
Answer: Its value is 7.8.

Question: CCOc1ccc(N(C)c2nc(Cl)nc3ccccc23)cc1 [Example 32, (2-Chloro-quinazolin-4-yl)-(4-ethoxy-phenyl)-methylamine] was tested. Which “Caspase activity Ratio” value did it give?
Answer: The value was 9.0.
